Laboratory results: patent publication US11802107B2, “Compounds and methods of use” (Signum Biosciences, Inc., priority 2017, dated 2023)
In brackets after ≈: the same amount, converted by molar mass. Structures can show the parent of a compound that is named as a salt. Where two headings read alike, the source gives them in different places.

What was measured:
P. acnes (ATCC 6919) = experiment: Minimal inhibitory concentration (MIC) against P. acnes; assay type: cell-based, Propionibacterium acnes; details: P. acnes ATCC 6919, 10^6 CFU/mL
Description: To determine minimal inhibitory concentration (MIC), reagents were dissolved in vehicle (5% v/v) and then added to bacteria suspension. P. acnes (ATCC® 6919TM) at 10^6 CFU/mL was incubated with test materials at the concentrations of two-fold serial dilution (0.25-500 μg/mL) and incubated for 72 hours (P. acnes).

IL-8 = experiment: P. acnes-induced IL-8 on human NHEKs; assay type: cell-based; details: NHEK, live P. acnes 10^7 CFU, 24 hours, ELISA, read-out: P. acnes-NHEK IL-8 Protein IC50
Description: Normal human epidermal keratinocytes (NHEKs) from neonatal donors were obtained from Thermo-Fisher (Cat No. C-001-5C). Cells were cultured in 96-well plates for 24 hours with EpiLife media (Cat No. MEPI500CA) supplemented with keratinocytes growth supplement (Cat No. S0015). On Day 2, media was removed and replaced with supplement-depleted medium for 24 hours. On Day 3, media was removed and cells were pre-treated with test materials ([…]) for 2 hours and later co-treated with test materials and live P. acnes (ATCC® 6919TM) at 10^7 CFU for 24 hours at 37° C. and 5% CO2. After incubation, cell media supernatants were harvested and used to measure pro-inflammatory cytokine levels (IL-8) using ELISA kits (BD Biosciences® #555244). Results were represented as percent of inhibition relative to untreated and P. acnes-only treated cells. IC50 values were determined by non-linear regression analysis using the four-parameter logistic equation.

Balb/C mice = experiment: Oxazolone-induced delayed-type hypersensitivity (DTH) in vivo model; details: Mus musculus, topical to ears @ 3% w/v, 24 hours, read-out: Edema % inhibition
Description: Inbred male Balb/C mice were purchased from Hilltop Lab Animals (Scottdale, PA) and were used between 8 and 10 weeks of age. Mice backs were shaved and 100 μl of 3% v/v Oxazolone (Sigma Aldrich, Cat No. E0753) in acetone/olive oil (4:1) was applied to dorsal skin for sensitization. On Day 7, ears were challenged with 0.5% v/v Oxazolone and 30 minutes after challenge, test materials at 3% w/v were applied to ears (10 μl applied both to the dorsal and ventral surfaces of the mouse ear using a solvent pipette) and 24 hours later, skin thickness (edema) was measured. A 6-mm punch biopsy was obtained from each ear, snap frozen in liquid nitrogen. Ear skin biopsy punches were pulverized using FastPrep®-24 Biopulverizer (MP Biomedical, CatNo. 116004500) and Lysing Matrix A tubes (CatNo. 16910050). Protein extracts were obtained using 500 μL/tissue of cold T-PER buffer (ThermoFisher, CatNo. 78510) with Protease inhibitors (Sigma-Aldich, CatNo. 58820-20TAB). Soluble protein fractions were used to measure cytokine levels (IL-4) using ELISA kit (BD Biosciences® #555232). Results were represented as percent of inhibition relative to unsensitized and sensitized-only treated animals. Vehicle for presently disclosed compounds was 60:40 H2O:EtOH and 1:1 Acetone:EtOH for AN2718. (n=5-15 animals per treatment group).
Compound C was further analyzed at various dosages against 0.4 mg/ear of […] by the above protocol, data representing the average±S.E. of cumulative data from three independent experiments (n=12-15 mice per group) is shown below: […]

IL1B (IL-1b) = experiment: P. acnes-induced IL-1b gene on human PBMCs (qPCR); assay type: cell-based; details: PBMC, PBMCs + live P. acnes 1:1, test material 30 PM, 24 hours
Description: (§1) Cryopreserved human Peripheral Blood Mononuclear cells (PBMCs) from healthy adult donors were obtained from Zen Bio, Inc (Cat No. SER-PBMC-F). Cells were cultured in 12-well plates with lymphocyte media (Cat No. LYMPH-1) and incubated with test materials ([…]) and live P. acnes (ATCC® 6919TM) at 1:1 PBMC: P. acnes bacteria ratio for 24 hours at 37° C. and 5% CO2. After incubation, cell media supernatants were harvested and used to measure pro-inflammatory cytokine levels (IL-8, TNF-α, IL-1b, IL-17) using ELISA kits (BD Biosciences® #557966, #555212, #555244; R&D Systems® #DY317). Total RNA was extracted from cells using the RNAqueous® kit (Ambion®; Cat No. 1912) and cDNA was obtained using the High Capacity RNA-to-cDNA kit (Applied Biosystems®; Cat No. 4387406). Quantitative PCR (qPCR) was performed using the TaqMan® Fast Advanced Master Mix (Applied Biosystems®; Cat No. 4444556) and specific TaqMan®-probes human gene primers CXCL8 (IL-8), IL1B (IL-1b), TNF (TNF-α), IL17A (IL-17A) and GAPDH to calculate the relative gene fold expression change per treatment. Gene expression analysis was performed using the comparative Ct method (also known as the 2-[delta][delta]Ct) approach by comparing the Ct values of P. acnes-only treated cells with the untreated samples and normalized to GAPDH gene expression as endogenous housekeeping gene.

CXCL8 (IL-8) = experiment: P. acnes-induced IL-8 gene on human PBMCs (qPCR); assay type: cell-based; details: PBMC, PBMCs + live P. acnes 1:1, test material 30 PM, 24 hours
Description: as §1

IL17A (IL-17A) = experiment: P. acnes-induced IL-17 gene on human PBMCs (qPCR); assay type: cell-based; details: PBMC, PBMCs + live P. acnes 1:1, test material 30 PM, 24 hours
Description: as §1

TNF (TNF-α) = experiment: P. acnes-induced TNF-α gene on human PBMCs (qPCR); assay type: cell-based; details: PBMC, PBMCs + live P. acnes 1:1, test material 30 PM, 24 hours, read-out: TNFa-Gene % inhibition
Description: as §1

[1] = Cutibacterium acnes, ATCC6919, 72 h, read-out: MIC

MIC (P. acnes (ATCC 6919); [1]) [mg/L]	Structure (SMILES)	inhibition in vivo at 3 % strength (Balb/C mice) [%]	other results
125 (≈ 237 µM)	C/C(=C\CSC(C)(C)C(NC(=O)CCC(=O)O)C(=O)O)CCCC(C)CCCC(C)CCCC(C)C (stereo not shown) [BO]	–	–
> 125	C/C(=C\CSC(C)(C)C(Nc1ncc(C(=O)O)cn1)C(=O)O)CCCC(C)CCCC(C)CCCC(C)C (stereo not shown) [BP]	–	–
0.06	CCC[C@@H]1C[C@@H](C(=O)N[C@@H]([C@H]2O[C@H](SC)[C@H](O)[C@@H](O)[C@H]2O)[C@H](C)Cl)N(C)C1 [Clindamycin HCl, reference compound]	–	–
–	C[C@H]1C[C@H]2[C@@H]3CCC4=CC(=O)C=C[C@]4(C)[C@@]3(F)[C@@H](O)C[C@]2(C)[C@@]1(O)C(=O)CCl [Clobetasol, reference compound]	–	IC50 (IL-8): 0.033 µM
12 (≈ 23.3 µM)	C/C(=C/CSC[C@H](NC(=O)N(C)CC(=O)O)C(=O)O)CCCC(C)CCCC(C)CCCC(C)C (stereo partly drawn) [Compound BI, (2R)-2-{[(carboxymethyl)(methyl)carbamoyl]amino}-3-{[(2Z)-3,7,11,15-tetramethylhexadec-2-en-1-yl]sulfanyl}propanoic acid]	–	–
< 0.2	C[C@H]1c2cccc(O)c2C(=O)C2=C(O)[C@]3(O)C(=O)C(C(N)=O)=C(O)[C@@H](N(C)C)[C@@H]3[C@@H](O)[C@@H]21 [Doxycycline, reference compound]	–	–
6 (≈ 12 µM)	C/C(=C\CSCC(NC(=O)CCC(N)=O)C(=O)O)CCCC(C)CCCC(C)CCCC(C)C (stereo not shown) [F]	–	IC50 (IL-8; Homo sapiens): 1.69 µM
6 (≈ 10.6 µM)	C/C(=C\CSCC(NC(=O)c1ccc(O)c(C(=O)O)c1)C(=O)O)CCCC(C)CCCC(C)CCCC(C)C (stereo not shown) [H]	14	IC50 (IL-8; Homo sapiens): 0.02 µM
32 (≈ 57.5 µM)	CC(=O)N[C@@H](CC(=O)O)C(=O)NC(CSC/C=C(\C)CCCC(C)CCCC(C)CCCC(C)C)C(=O)O (stereo partly shown) [J]	10	–
> 250	CC(=O)NC(C(=O)NC(CSC/C=C(\C)CCCC(C)CCCC(C)CCCC(C)C)C(=O)O)C(C)CO (stereo not shown) [K]	–	–
–	CSCCC(NC(C)=O)C(=O)NC(CSC/C=C(\C)CCCC(C)CCCC(C)CCCC(C)C)C(=O)O (stereo not shown) [L]	–	MIC (P. acnes (ATCC 6919); 72 hours): >16 mg/L
16 (≈ 28.8 µM)	CC(=O)NC(CC(C)C)C(=O)NC(CSC/C=C(\C)CCCC(C)CCCC(C)CCCC(C)C)C(=O)O (stereo not shown) [M]	–	–
> 250	CC(=O)NC(C(=O)NC(CSC/C=C(\C)CCCC(C)CCCC(C)CCCC(C)C)C(=O)O)C(C)O (stereo not shown) [N]	–	–
32 (≈ 54.3 µM)	CC(=O)NC(Cc1ccccc1)C(=O)NC(CSC/C=C(\C)CCCC(C)CCCC(C)CCCC(C)C)C(=O)O (stereo not shown) [O]	–	–
10 (≈ 18 µM)	CC(=O)NC(CC(N)=O)C(=O)NC(CSC/C=C(\C)CCCC(C)CCCC(C)CCCC(C)C)C(=O)O (stereo not shown) [P]	–	–
125 (≈ 224 µM)	CC(=O)NC(CC(=O)NC(CSC/C=C(\C)CCCC(C)CCCC(C)CCCC(C)C)C(=O)O)C(=O)O (stereo not shown) [Q]	–	inhibition at 30 pM (IL1B (IL-1b)): 59%; inhibition at 30 pM (CXCL8 (IL-8)): 14%; inhibition at 30 pM (IL17A (IL-17A)): 72%; inhibition at 30 pM (TNF (TNF-α)): 0%
> 25	CC(=O)NC(COC(C)(C)C)C(=O)NC(CSC/C=C(\C)CCCC(C)CCCC(C)CCCC(C)C)C(=O)O (stereo not shown) [R]	24	–
19 (≈ 33.1 µM)	C/C(=C\CSCC(NC(=O)C(O)(CC(=O)O)CC(=O)O)C(=O)O)CCCC(C)CCCC(C)CCCC(C)C (stereo not shown) [U]	18	–
62 (≈ 115 µM)	C/C(=C\CSCC(N/C(=N/C#N)N(C)CC(=O)O)C(=O)O)CCCC(C)CCCC(C)CCCC(C)C (stereo not shown) [W]	22	–
> 25	C/C(=C\CSCC(NC(=O)c1ccc(C(=O)O)cc1)C(=O)O)CCCC(C)CCCC(C)CCCC(C)C (stereo not shown) [X]	15	–
50 (≈ 90.1 µM)	C/C(=C\CSCC(NC(=O)N1CCC(C(=O)O)CC1)C(=O)O)CCCC(C)CCCC(C)CCCC(C)C (stereo not shown) [Y]	0	–
